As a reminder, the ED50 is the dose that gives a 50% effect, or the effect in half of the subjects.

For the assay, the species on record is Mus musculus. The assay is described as follows: Antidepressant activity against […] Swiss albino mouse model assessed as […]. It is filed as functional.
Consider `CNCCC1(C)OCCn2c1c(C)c1ccccc12.Cl` (stereo not drawn), for which the ED50 came to 0.5 mg/kg. In the case of `Cc1c2n(c3ccccc13)CCOC2(C)CCN(C)C.Cl` (stereo not drawn), the ED50 was 2 mg/kg. As for `Cc1c2n(c3ccccc13)CCOC2(C)CCCN(C)C.Cl` (stereo not drawn), the ED50 turned out to be 2.9 mg/kg.

For the origin of these results see ChEMBL document CHEMBL5226330, “Synthesis of Oxazino[4,3-a]indoles and biological applications” (2021).
